In patent US11014941B2, “Pyrrolopyrimidine derivatives useful as inhibitors of influenza virus replication” (priority 2017, dated 2021):

Each compound was assayed against Influenza PB2 (Influenza A virus, UniProt P03428) (assay: biochemical). Conditions: read-out: Influenza PB2 affinity, IC50.
Chain of Influenza PB2 (P03428 whole entry, looked up): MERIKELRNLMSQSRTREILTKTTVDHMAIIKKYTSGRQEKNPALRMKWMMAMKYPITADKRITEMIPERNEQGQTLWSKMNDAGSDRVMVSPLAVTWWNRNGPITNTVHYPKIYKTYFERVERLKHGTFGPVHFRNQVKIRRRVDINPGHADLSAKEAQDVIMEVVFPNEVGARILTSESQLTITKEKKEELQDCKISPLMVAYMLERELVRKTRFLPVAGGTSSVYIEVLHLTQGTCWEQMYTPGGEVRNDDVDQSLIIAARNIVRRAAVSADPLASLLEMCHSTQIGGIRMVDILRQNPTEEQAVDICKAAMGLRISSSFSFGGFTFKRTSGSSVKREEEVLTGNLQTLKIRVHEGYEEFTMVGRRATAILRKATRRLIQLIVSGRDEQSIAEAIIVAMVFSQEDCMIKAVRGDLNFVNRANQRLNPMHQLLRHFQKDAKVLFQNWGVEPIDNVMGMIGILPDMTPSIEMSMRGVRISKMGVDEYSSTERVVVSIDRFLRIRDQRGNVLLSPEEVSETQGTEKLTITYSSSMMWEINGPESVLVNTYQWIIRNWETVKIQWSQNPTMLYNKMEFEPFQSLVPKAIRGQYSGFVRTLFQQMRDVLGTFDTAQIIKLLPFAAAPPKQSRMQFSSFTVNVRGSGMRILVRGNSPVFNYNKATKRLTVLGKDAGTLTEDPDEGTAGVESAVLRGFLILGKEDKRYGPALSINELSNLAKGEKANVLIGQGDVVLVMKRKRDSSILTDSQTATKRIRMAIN
Assay type: binding
With CCCCCOCCOCCNC(=O)N[C@H]1CCC[C@@H](n2ccc3cnc(-c4c[nH]c5ncc(F)cc45)nc32)C1 [Compound B36] the IC50 was greater than 100 µM.
In the case of CCOCCOCCCCCNC(=O)N1CCC[C@H](n2ccc3cnc(-c4c[nH]c5ncc(F)cc45)nc32)C1 [Compound B37], the IC50 is reported as greater than 100 µM.
For CCOCCCCCOCCNC(=O)N[C@@H]1CCC[C@H](n2ccc3cnc(-c4c[nH]c5ncc(F)cc45)nc32)C1 [Compound B38], the IC50 was greater than 100 µM.
CCCCCOCCOCC(=O)N[C@@H]1CCC[C@H](n2ccc3cnc(-c4c[nH]c5ncc(F)cc45)nc32)C1 [Compound B39] gave an IC50 of 10 to 100 µM.
Compound CCOCCOCCCCCNC(=O)N[C@@H]1CCC[C@H](n2ccc3cnc(-c4c[nH]c5ncc(F)cc45)nc32)C1 [Compound B40] has an IC50 greater than 100 µM.
For CCOCCCCCOCCN(C)C(=O)N[C@@H]1CCC[C@H](n2ccc3cnc(-c4c[nH]c5ncc(F)cc45)nc32)C1 [Compound B41], the IC50 was 10 to 100 µM.
With CCCCCOCCOCCN(C)C(=O)N[C@@H]1CCC[C@H](n2ccc3cnc(-c4c[nH]c5ncc(F)cc45)nc32)C1 [Compound B42] the IC50 was greater than 100 µM.
For CCCCCOCCCCCN(C)C(=O)N[C@@H]1CCC[C@H](n2ccc3cnc(-c4c[nH]c5ncc(F)cc45)nc32)C1 [Compound B44], the IC50 was greater than 100 µM.
CCOCCOCCCCCN(C)C(=O)N[C@@H]1CCC[C@H](n2ccc3cnc(-c4c[nH]c5ncc(F)cc45)nc32)C1 [Compound B45] showed an IC50 of 10 to 100 µM.
In the case of CCOCCOCCOCCNC(=O)[C@H]1CCC[C@@H](n2ccc3cnc(-c4c[nH]c5ncc(F)cc45)nc32)C1 [Compound B46], the IC50 is reported as 10 to 100 µM.
CCOCCOCCOCCNC(=O)[C@H]1CCC[C@H](n2ccc3cnc(-c4c[nH]c5ncc(F)cc45)nc32)C1 [Compound B47] showed an IC50 greater than 100 µM.
Compound O=C(O)[C@@H]1CCC[C@H](n2ccc3cnc(-c4c[nH]c5ncc(F)cc45)nc32)C1 [Compound B48] has an IC50 of 1 to 10 µM.
CCCCCOCCCCCNC(=O)N[C@H]1CCC[C@@H](n2ccc3cnc(-c4c[nH]c5ncc(F)cc45)nc32)C1 [Compound B49] gave an IC50 greater than 100 µM.
Compound CCCCCOCCCCC(=O)N[C@H]1CCC[C@@H](n2ccc3cnc(-c4c[nH]c5ncc(F)cc45)nc32)C1 [Compound B50] has an IC50 greater than 100 µM.
Compound CCOC(=O)C1=C(N2CCc3cnc(-c4c[nH]c5ncc(F)cc45)nc32)CCCC1 [Compound B51] has an IC50 greater than 100 µM.
CCOCCOCCCCC(=O)N[C@H]1CCC[C@@H](n2ccc3cnc(-c4c[nH]c5ncc(F)cc45)nc32)C1 [Compound B52] gave an IC50 greater than 100 µM.
O=C(O)C1=C(N2CCc3cnc(-c4c[nH]c5ncc(F)cc45)nc32)CCCC1 [Compound B53] gave an IC50 of 1 to 10 µM.
CC(=O)N1CCCC(Cn2cc(F)c3cnc(-c4c[nH]c5ncc(F)cc45)nc32)C1 (stereo not shown) [Compound B54] showed an IC50 of 1 to 10 µM.
Fc1cnc2[nH]cc(-c3ncc4c(F)cn(CC5CCNCC5)c4n3)c2c1 [Compound B55] showed an IC50 greater than 100 µM.
For CN(C)C(=O)N[C@@H]1CCC[C@H](n2ccc3cnc(-c4c[nH]c5ncc(F)cc45)nc32)C1 [Compound B56], the IC50 was 10 to 100 µM.
CNC(=O)NC1CCCC(n2ccc3cnc(-c4c[nH]c5ncc(F)cc45)nc32)C1 (stereo not shown) [Compound B57] showed an IC50 of 10 to 100 µM.
In the case of CC(=O)N1CCC(Cn2cc(F)c3cnc(-c4c[nH]c5ncc(F)cc45)nc32)CC1 [Compound B58], the IC50 is reported as 10 to 100 µM.
For CN(C)C(=O)N[C@H]1CCC[C@H](n2ccc3cnc(-c4c[nH]c5ncc(F)cc45)nc32)C1 [Compound B59], the IC50 was 10 to 100 µM.
Compound Fc1cnc2[nH]cc(-c3ncc4c(F)cn(CC5CCCNC5)c4n3)c2c1 (stereo not shown) [Compound B60] has an IC50 of 10 to 100 µM.
For CNC(=O)N1CCCC(Cn2cc(F)c3cnc(-c4c[nH]c5ncc(F)cc45)nc32)C1 (stereo not shown) [Compound B61], the IC50 was 1 to 10 µM.
CNC(=O)N1CCC(Cn2cc(F)c3cnc(-c4c[nH]c5ncc(F)cc45)nc32)CC1 [Compound B62] showed an IC50 greater than 100 µM.
In the case of CN(C)C(=O)N1CCC(Cn2cc(F)c3cnc(-c4c[nH]c5ncc(F)cc45)nc32)CC1 [Compound B63], the IC50 is reported as 10 to 100 µM.
CNC(=O)N[C@@H]1CCC[C@@H](n2ccc3cnc(-c4c[nH]c5ncc(F)cc45)nc32)C1 [Compound B65] gave an IC50 of 1 to 10 µM.
COC(=O)[C@]1(C)CCCC[C@H]1n1cc(Cl)c2cnc(-c3c[nH]c4ncc(F)cc34)nc21 [Compound B66] gave an IC50 of 10 to 100 µM.
In the case of COC(=O)[C@@]1(C)CCCC[C@@H]1n1ccc2cnc(-c3c[nH]c4ncc(F)cc34)nc21 [Compound B67], the IC50 is reported as 10 to 100 µM.
CNC(=O)N[C@H]1CC[C@@H](n2ccc3cnc(-c4c[nH]c5ncc(F)cc45)nc32)CC1 [Compound B68] was tested, and the IC50 was 1 to 10 µM.
With N[C@H]1CC[C@@H](n2ccc3cnc(-c4c[nH]c5ncc(F)cc45)nc32)CC1 [Compound B69] the IC50 was 10 to 100 µM.
CN(C)C(=O)N[C@H]1CC[C@@H](n2ccc3cnc(-c4c[nH]c5ncc(F)cc45)nc32)CC1 [Compound B70] was tested, and the IC50 was 10 to 100 µM.
Work on C[C@]1(C(=O)O)CCCC[C@@H]1n1ccc2cnc(-c3c[nH]c4ncc(F)cc34)nc21 [Compound B71] yielded an IC50 of less than 1 µM.
C[C@@]1(C(=O)O)CCCC[C@H]1n1cc(Cl)c2cnc(-c3c[nH]c4ncc(F)cc34)nc21 [Compound B72] gave an IC50 of less than 1 µM.
COC(=O)[C@]1(C)CCCC[C@H]1n1cc(C(F)(F)F)c2cnc(-c3c[nH]c4ncc(F)cc34)nc21 [Compound B73] gave an IC50 of 10 to 100 µM.
Work on C[C@@]1(C(=O)O)CCCC[C@H]1n1cc(C(F)(F)F)c2cnc(-c3c[nH]c4ncc(F)cc34)nc21 [Compound B74] yielded an IC50 of less than 1 µM.
Compound CN(C)C(=O)N1CCCC(Cn2cc(F)c3cnc(-c4c[nH]c5ncc(F)cc45)nc32)C1 (stereo not shown) [Compound B75] has an IC50 of 10 to 100 µM.
Fc1cnc2[nH]cc(-c3ncc4c(F)cn(CC5CCCCN5)c4n3)c2c1 (stereo not shown) [Compound B76] gave an IC50 of 10 to 100 µM.
Compound CNC(=O)n1cc(-c2ncc3c(F)cn(CC4CCCCN4)c3n2)c2cc(F)cnc21 (stereo not shown) [Compound B77] has an IC50 of 10 to 100 µM.
In the case of CC(C)(C)OC(=O)N1CCC(Cn2cc(F)c3cnc(-c4c[nH]c5ncc(F)cc45)nc32)CC1 [Compound B78], the IC50 is reported as greater than 100 µM.
With CNC(=O)N[C@H]1CC[C@H](n2ccc3cnc(-c4c[nH]c5ncc(F)cc45)nc32)CC1 [Compound B79] the IC50 was greater than 100 µM.
Work on CN(C)C(=O)N[C@H]1CC[C@H](n2ccc3cnc(-c4c[nH]c5ncc(F)cc45)nc32)CC1 [Compound B80] yielded an IC50 greater than 100 µM.
Work on COC(=O)[C@@]1(C)CCCC[C@H]1n1cc(Cl)c2cnc(-c3c[nH]c4ncc(F)cc34)nc21 [Compound B81] yielded an IC50 greater than 100 µM.
Work on CNC(=O)[C@]1(C)CCCC[C@H]1n1cc(Cl)c2cnc(-c3c[nH]c4ncc(F)cc34)nc21 [Compound B82] yielded an IC50 of 10 to 100 µM.
C[C@@]1(C(=O)O)CCCC[C@@H]1n1cc(Cl)c2cnc(-c3c[nH]c4ncc(F)cc34)nc21 [Compound B83] showed an IC50 of 1 to 10 µM.
With CC(C)(C)C(C(=O)O)n1ccc2cnc(-c3c[nH]c4ncc(F)cc34)nc21 (stereo not shown) [Compound B84] the IC50 was 1 to 10 µM.
For CNC(=O)N1CCCCC1Cn1cc(F)c2cnc(-c3c[nH]c4ncc(F)cc34)nc21 (stereo not shown) [Compound B85], the IC50 was 1 to 10 µM.
CN(C)C(=O)N1CCCCC1Cn1cc(F)c2cnc(-c3c[nH]c4ncc(F)cc34)nc21 (stereo not shown) [Compound B86] gave an IC50 of 1 to 10 µM.
Compound O=C(O)[C@@H]1CCCC[C@H]1n1cc(F)c2cnc(-c3c[nH]c4ncc(Cl)cc34)nc21 [Compound B87] has an IC50 of less than 1 µM.
With CCOC(=O)[C@]1(C)CCCC[C@H]1n1cc(F)c2cnc(-c3c[nH]c4ncc(Cl)cc34)nc21 [Compound B88] the IC50 was greater than 100 µM.
Work on C[C@@]1(C(=O)O)CCCC[C@H]1n1cc(F)c2cnc(-c3c[nH]c4ncc(F)cc34)nc21 [Compound B89] yielded an IC50 of less than 1 µM.
